Results taken from ChEMBL document CHEMBL1135192, “Translocation of the 5-alkoxy substituent of 2,5-dialkoxyarylalkylamines to the 6-position: effects on 5-HT(2A/2C) receptor affinity” (Bioorg Med Chem Lett, 2002).

Tests used:
[1] = target: T1, 5-hydroxytryptamine receptor 2C (Rattus norvegicus, UniProt P08909); test: Compound was evaluated for its ability to displace (+/-)[125I]-DOI from 5-hydroxytryptamine 2C receptor in cloned rat cell culture
T1 sequence (P08909 whole entry): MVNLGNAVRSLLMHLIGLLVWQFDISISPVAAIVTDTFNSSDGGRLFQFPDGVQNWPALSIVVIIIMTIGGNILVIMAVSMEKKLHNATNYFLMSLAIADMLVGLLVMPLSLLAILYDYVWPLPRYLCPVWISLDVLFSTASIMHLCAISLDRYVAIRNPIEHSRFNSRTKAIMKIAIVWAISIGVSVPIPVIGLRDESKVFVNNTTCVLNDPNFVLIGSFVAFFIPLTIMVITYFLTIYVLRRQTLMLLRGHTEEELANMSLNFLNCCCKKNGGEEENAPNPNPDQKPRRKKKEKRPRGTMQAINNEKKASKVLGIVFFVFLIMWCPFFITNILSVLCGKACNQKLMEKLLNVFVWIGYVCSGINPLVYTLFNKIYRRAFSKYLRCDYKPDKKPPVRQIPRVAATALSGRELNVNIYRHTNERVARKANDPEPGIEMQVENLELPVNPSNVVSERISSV

[2] = target: T2, 5-hydroxytryptamine receptor 2A (Rattus norvegicus, UniProt P14842); test: Compound was evaluated for its ability to displace (+/-)[125I]-DOI from 5-hydroxytryptamine 2A receptor in cloned rat cell culture
T2 sequence (P14842 whole entry): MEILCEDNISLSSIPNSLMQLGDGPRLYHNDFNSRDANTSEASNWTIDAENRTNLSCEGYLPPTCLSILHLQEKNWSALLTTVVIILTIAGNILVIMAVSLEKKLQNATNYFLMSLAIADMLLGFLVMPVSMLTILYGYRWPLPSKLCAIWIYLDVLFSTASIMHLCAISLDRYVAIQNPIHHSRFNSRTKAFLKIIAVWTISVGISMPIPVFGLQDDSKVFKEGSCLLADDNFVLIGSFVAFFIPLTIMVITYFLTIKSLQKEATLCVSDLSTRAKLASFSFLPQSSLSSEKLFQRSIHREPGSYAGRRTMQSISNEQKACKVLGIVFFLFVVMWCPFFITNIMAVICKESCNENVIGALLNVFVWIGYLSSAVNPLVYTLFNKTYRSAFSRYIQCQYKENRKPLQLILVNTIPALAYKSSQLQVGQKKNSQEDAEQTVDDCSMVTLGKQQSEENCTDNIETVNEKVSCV

[3] = organism: Rattus norvegicus; test: Drug discrimination in LSD-trained rats; format: functional
[4] = target: T2, 5-hydroxytryptamine receptor 2A; test: biochemical
Description: Compound was evaluated for its ability to displace [125I](R)-DOI from 5-hydroxytryptamine 2A receptor in cloned rat prefrontal cortex homogenate

Which Ki [1] does the source give for `COc1cc(C)cc(OC)c1CC(C)N` (stereo not drawn) here?
Its Ki is 50 nM.

What about the Ki [2] of the same molecule?
The Ki was 49 nM.

Which results are given for `Cc1c2c(c(CC(C)N)c3c1CCO3)OCC2` (stereo not drawn)?
Ki [1]: 7.5 nM; Ki [2]: 6.3 nM

`Cc1c2ccoc2c(CC(C)N)c2occc12` (stereo not drawn) was tested. Which Ki [1] did it give?
The Ki was 0.9 nM.

What about the Ki [2] of the same molecule?
The Ki was 1.8 nM.

How did the ED50 [3] turn out when `COc1cc(CC(C)N)c(OC)cc1C` (stereo not drawn) [DOM] was run?
Its ED50 is 0.89 µmol/kg.

What about the Ki [4] of the same molecule?
The Ki was 19 nM.
